Measurements reported in patent US6638951B1, “Benzamide derivatives and drugs containing the same” (Hokuriku Seiyaku Co., Ltd., priority 1999, dated 2003).
Where a name gives a salt, the structure may show the parent alone.

Experiments:
male ferrets = test: Emetic action in ferrets; assay type: in vivo; details: 16 hours fasting, 10 mg/kg p.o., during 2 hours after administration, 8 tested ferrets per compound
Description: The tested compound of Example 5 was used as a methanesulfonic acid salt, and the following compounds disclosed in Japanese Patent Unexamined Publication No. 5-262724/1993 were used as reference compounds:
Each test compound dissolved in 10% aqueous dimethyl sulfoxide solution was administered to male ferrets, weighing 0.9 to 1.3 kg, and 16 hours fasting, and then the incidence of vomiting was observed during 2 hours after the administration.

SMILES	melting point [°C]	Number of ferrets showing vomiting (male ferrets)
CCCCOC(=O)CN1CCC(NC(=O)c2cc(Cl)c(N)cc2OC)CC1 (as salt: methanesulfonate) [Example 9, n-Butyl 4-(4-amino-5-chloro-2-methoxybenzamido)-1-piperidineacetate]	111 to 112	
CCCCOC(=O)CN1CCC(NC(=O)c2cc(Cl)c(N)cc2OC)CC1 [Example 1, n-Butyl 4-(4-amino-5-chloro-2-methoxybenzamido)-1-piperidineacetate]		0
CCCOC(=O)CN1CCC(NC(=O)c2cc(Cl)c(N)cc2OC)CC1 [Example 2, n-Propyl 4-(4-amino-5-chloro-2-methoxybenzamido)-1-piperidineacetate]		2
COc1cc(N)c(Cl)cc1C(=O)NC1CCN(CC(=O)OCC(C)C)CC1 [Example 4, Isobutyl 4-(4-amino-5-chloro-2-methoxybenzamido)-1-piperidineacetate]		1
CCCCCOC(=O)CN1CCC(NC(=O)c2cc(Cl)c(N)cc2OC)CC1 [Example 5, n-Pentyl 4-(4-amino-5-chloro-2-methoxybenzamido)-1-piperidineacetate]		0
CCCCCCOC(=O)CN1CCC(NC(=O)c2cc(Cl)c(N)cc2OC)CC1 [Example 7, n-Hexyl 4-(4-amino-5-chloro-2-methoxybenzamido)-1-piperidineacetate]		1
COc1cc(N)c(Cl)cc1C(=O)NC1CCN(CC(=O)O)CC1.Cl [Reference compound 1, 4-(4-amino-5-chloro-2-methoxybenzamido)-1-piperidineacetic acid hydrochloride, reference compound]		0
CCOC(=O)CN1CCC(NC(=O)c2cc(Cl)c(N)cc2OC)CC1.Cl [Reference compound 2, Ethyl 4-(4-amino-5-chloro-2-methoxybenzamido)-1-piperidine-acetate hydrochloride, reference compound]		8

The next lines start with results.

melting point [°C]	SMILES	Number of ferrets showing vomiting (male ferrets)
125 to 130	COc1cc(N)c(Cl)cc1C(=O)NC1CCN(CC(=O)OC(C)C)CC1 (as salt: hydrochloride) [Example 3, Isopropyl 4-(4-amino-5-chloro-2-methoxybenzamido)-1-piperidineacetate]	
133 to 137	CCCCCCOC(=O)CN1CCC(NC(=O)c2cc(Cl)c(N)cc2OC)CC1 (as salt: hydrochloride) [Example 7, n-Hexyl 4-(4-amino-5-chloro-2-methoxybenzamido)-1-piperidineacetate]	
141 to 144	CCCCOC(=O)CN1CCC(NC(=O)c2cc(Cl)c(N)cc2OC)CC1 (as salt: hydrochloride) [Example 8, n-Butyl 4-(4-amino-5-chloro-2-methoxybenzamido)-1-piperidineacetate]	
209 to 211.5	CCCCOC(=O)CN1CCC(NC(=O)c2cc(Cl)c(N)cc2OC)CC1 (as salt: methanesulfonate) [Example 1, n-Butyl 4-(4-amino-5-chloro-2-methoxybenzamido)-1-piperidineacetate]	
209 to 210	CCCOC(=O)CN1CCC(NC(=O)c2cc(Cl)c(N)cc2OC)CC1 (as salt: methanesulfonate) [Example 2, n-Propyl 4-(4-amino-5-chloro-2-methoxybenzamido)-1-piperidineacetate]	
207 to 208	COc1cc(N)c(Cl)cc1C(=O)NC1CCN(CC(=O)OCC(C)C)CC1 (as salt: methanesulfonate) [Example 4, Isobutyl 4-(4-amino-5-chloro-2-methoxybenzamido)-1-piperidineacetate]	
202.5 to 203	CCCCCOC(=O)CN1CCC(NC(=O)c2cc(Cl)c(N)cc2OC)CC1 (as salt: methanesulfonate) [Example 5, n-Pentyl 4-(4-amino-5-chloro-2-methoxybenzamido)-1-piperidineacetate]	
199.5 to 201	COc1cc(N)c(Cl)cc1C(=O)NC1CCN(CC(=O)OCCC(C)C)CC1 (as salt: methanesulfonate) [Example 6, Isopentyl 4-(4-amino-5-chloro-2-methoxybenzamido)-1-piperidineacetate]	
